Structures can show the parent of a compound that is named as a salt. Starred links: 1 amine or outer side, 2 acyl side, 3 side chain; linkers in the order of their positions; H or OH if unused. Positions of bridges follow the written chain, without caps; N, C: chain ends. Non-standard residues stand in square brackets, D forms with d. Residues, ends and D or L forms follow the SMILES beside them. *: point of attachment. X16 = C[N+](C)(C)Cc1cn(-c2ccc(C[C@H](N[*:1])C(=O)[*:2])cc2)nn1; Me3N+(CH2)2O(CH2)2O(CH2)2CO = C[N+](C)(C)CCOCCOCCC(=O)*; Trp(7-Me) = Cc1cccc2c(C[C@H](N)C(=O)O)c[nH]c12; 3Pal(5-Me) = Cc1cncc(C[C@H](N)C(=O)O)c1; CH2CH2OCH2CH2NMe3+ = C[N+](C)(C)CCOCC*; 2Nal = N[C@@H](Cc1ccc2ccccc2c1)C(=O)O; AEF = NCCOc1ccc(C[C@H](N)C(=O)O)cc1; X19 = C[N+](C)(C)C[C@@H](CC(=O)O)N*; dNMeY = CN[C@H](Cc1ccc(O)cc1)C(=O)O; 3Pal = N[C@@H](Cc1cccnc1)C(=O)O; Cit = NC(=O)NCCC[C@H](N)C(=O)O; Lys(Me) = CNCCCC[C@H](N)C(=O)O; αMeL = CC(C)C[C@](C)(N)C(=O)O; Pen = CC(C)(S)[C@H](N)C(=O)O; X11 = N=C(N)NCCOCCOCCC(=O)*; X8 = C[N+](C)(C)CCCCCCCC*; X31 = N=C(N)NCCOCCC(=O)*; Thp = NC1(C(=O)O)CCOCC1; X3 = C[N+](C)(C)CCCCC*; Tfa = O=C(C(F)(F)F)*; Sar = CNCC(=O)O
Legend:
[1] = Exposed Polar Surface Area (EPSA); assay type: physicochemical; settings: SFC on Chirex 3014 column; sample 1 mM DMSO stock; read-out: EPSA
Summary of the method: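 Polarity descriptor in Å² derived from retention time using 8 calibration standards re-run every 20 compounds. Duplicate injections of 1 mM DMSO stock; linear 5–60% modifier gradient (20 mM ammonium formate in MeOH) with CO2 at 4 mL/min, 35 °C, on a Chirex 3014 column.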

IL-23R = biological target: T1, IL-23R (Homo sapiens, UniProt Q5VWK5); assay: IL23R Reporter Assay; assay type: cell-based; settings: HEK293 cells containing IL-23R, IL-12RP1 and STAT-inducible firefly luciferase reporter; 10 ng/mL IL-23 (EC90); 5 h at 37° C.; read-out: IL23R Reporter Assay
T1 construct: host or cells: HEK293
T1 sequence (Q5VWK5 24-629): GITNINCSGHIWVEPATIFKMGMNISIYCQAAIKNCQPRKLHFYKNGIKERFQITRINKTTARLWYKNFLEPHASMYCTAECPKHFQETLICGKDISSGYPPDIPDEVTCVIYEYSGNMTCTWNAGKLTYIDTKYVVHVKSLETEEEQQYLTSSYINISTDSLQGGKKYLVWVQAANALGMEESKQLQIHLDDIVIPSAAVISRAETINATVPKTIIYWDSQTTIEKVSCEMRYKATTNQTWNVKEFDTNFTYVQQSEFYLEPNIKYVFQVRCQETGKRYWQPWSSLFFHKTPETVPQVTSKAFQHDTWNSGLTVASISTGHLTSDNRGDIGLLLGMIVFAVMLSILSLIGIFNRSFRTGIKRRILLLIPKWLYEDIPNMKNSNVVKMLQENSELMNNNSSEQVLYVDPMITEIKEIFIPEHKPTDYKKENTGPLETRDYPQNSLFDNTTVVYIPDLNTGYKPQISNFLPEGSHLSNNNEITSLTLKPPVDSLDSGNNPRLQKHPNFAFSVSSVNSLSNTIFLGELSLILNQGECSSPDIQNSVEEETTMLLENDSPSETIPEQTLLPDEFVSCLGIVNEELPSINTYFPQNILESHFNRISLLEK

Compound	EPSA [1] [A^2]	IC50 (IL-23R) [nM]
CC(=O)NCCCC[C@@H]1NC(=O)[C@H](Cc2c[nH]c3c(C)cccc23)NC(=O)[C@H]([C@@H](C)O)NC(=O)[C@H](CC(N)=O)NC(=O)[C@@H](NC(=O)[C@@H](CCC(=O)N[C@H](CC(=O)O)C[N+](C)(C)C)NC(C)=O)C(C)(C)SSC(C)(C)[C@@H](C(=O)N[C@@H](Cc2ccc(OCCN)cc2)C(=O)N[C@@H](Cc2ccc3ccccc3c2)C(=O)NC2(C(=O)N[C@@H](CCCCNC(C)=O)C(=O)N[C@@H](CC(N)=O)C(=O)N[C@@H](Cc3cccnc3)C(=O)N(C)CC(N)=O)CCOCC2)NC1=O [compound 125] (Ac-[dE](X19)[Pen]NT[Trp(7-Me)]K(Ac)[Pen][AEF][2Nal][Thp]K(Ac)N[3Pal][Sar]-NH2; disulfide 2-7 (inferred))	181	2
CC(=O)NCCCC[C@@H]1NC(=O)[C@H](Cc2c[nH]c3c(C)cccc23)NC(=O)[C@H]([C@@H](C)O)NC(=O)[C@H](CC(N)=O)NC(=O)[C@@H](NC(=O)CCOCCOCC[N+](C)(C)C)C(C)(C)SSC(C)(C)[C@@H](C(=O)N[C@@H](Cc2ccc(-n3cc(C[N+](C)(C)C)nn3)cc2)C(=O)N[C@@H](Cc2ccc3ccccc3c2)C(=O)NC2(C(=O)N[C@@H](CCCCNC(C)=O)C(=O)N[C@@H](CC(N)=O)C(=O)N[C@@H](Cc3cccnc3)C(=O)N(C)CC(N)=O)CCOCC2)NC1=O [compound 438, cPEG3aCO-Pen(3)-N-T-7MeW-K(Ac)-Pen(3)-F(4TzlTMA1)-2Nal-THP-K(Ac)-N-3Pya-Sar-CONH2] ({Me3N+(CH2)2O(CH2)2O(CH2)2CO}-[Pen]NT[Trp(7-Me)]K(Ac)[Pen][X16][2Nal][Thp]K(Ac)N[3Pal][Sar]-NH2; disulfide 1-6)	167	3.4
CC(=O)N[C@H](CCCNC(=N)N)C(=O)N[C@@H]1C(=O)N[C@@H](CC(N)=O)C(=O)N[C@@H]([C@@H](C)O)C(=O)N[C@@H](Cc2c[nH]c3c(C)cccc23)C(=O)N[C@@H](CCCNC(N)=O)C(=O)N[C@H](C(=O)N[C@@H](Cc2ccc(OCCN)cc2)C(=O)N[C@@H](Cc2ccc3ccccc3c2)C(=O)N[C@@](C)(CC(C)C)C(=O)N[C@@H](CCC(=O)O)C(=O)N[C@@H](CC(N)=O)C(=O)N[C@H](CCCCN)C(=O)N(C)[C@H](Cc2ccc(O)cc2)C(N)=O)C(C)(C)SSC1(C)C [compound 16, MeCO-r-Pen(3)-N-T-7MeW-Cit-Pen(3)-AEF-2Nal-aMeL-E-N-k-NMeDTyr-CONH2] (Ac-[dR][Pen]NT[Trp(7-Me)][Cit][Pen][AEF][2Nal][αMeL]EN[dK][dNMeY]-NH2; disulfide 2-7)	180	24
CC(=O)NCCCC[C@@H]1NC(=O)[C@H](Cc2c[nH]c3c(C)cccc23)NC(=O)[C@H]([C@@H](C)O)NC(=O)[C@H](CC(N)=O)NC(=O)[C@@H](NC(=O)[C@@H](CCCNC(=N)N)NC(=O)CCOCCOCC[N+](C)(C)C)C(C)(C)SSC(C)(C)[C@@H](C(=O)N[C@@H](Cc2ccc(OCCN)cc2)C(=O)N[C@@H](Cc2ccc3ccccc3c2)C(=O)NC2(C(=O)N[C@@H](CCCCNC(C)=O)C(=O)N[C@@H](CC(N)=O)C(=O)N[C@@H](Cc3cncc(C)c3)C(=O)N(C)CC(N)=O)CCOCC2)NC1=O [compound 541, cPEG3aCO-r-Pen(3)-N-T-7MeW-K(Ac)-Pen(3)-AEF-2Nal-THP-K(Ac)-N-5MePyridinAla-Sar-CONH2] ({Me3N+(CH2)2O(CH2)2O(CH2)2CO}-[dR][Pen]NT[Trp(7-Me)]K(Ac)[Pen][AEF][2Nal][Thp]K(Ac)N[3Pal(5-Me)][Sar]-NH2; disulfide 2-7)	187	0.97
CC(=O)N(C)CCCC[C@H](NC(=O)C1(NC(=O)[C@H](Cc2ccc3ccccc3c2)NC(=O)[C@H](Cc2ccc(OCCN)cc2)NC(=O)[C@H]2NC(=O)[C@H](COCCOCC[N+](C)(C)C)NC(=O)[C@H](Cc3c[nH]c4c(C)cccc34)NC(=O)[C@H]([C@@H](C)O)NC(=O)[C@H](CC(=O)N(C)C)NC(=O)[C@@H](NC(=O)CCOCCOCC[N+](C)(C)C)C(C)(C)SSC2(C)C)CCOCC1)C(=O)N[C@@H](CC(N)=O)C(=O)N[C@@H](Cc1cccnc1)C(=O)N(C)CC(=O)N(C)C [compound 245, cPEG3aCO-Pen(3)-N(N(Me)2)-T-7MeW-APEG2Ser-Pen(3)-AEF-2Nal-THP-K(NMeAc)-N-3Pya-Sar-CON(Me)2] ({Me3N+(CH2)2O(CH2)2O(CH2)2CO}-[Pen]D(NMe2)T[Trp(7-Me)]S(CH2CH2OCH2CH2NMe3+)[Pen][AEF][2Nal][Thp][Lys(Me)](Ac)N[3Pal][Sar]-NMe2; disulfide 1-6)	148	42
CC(=O)N(C)CCCC[C@@H]1NC(=O)[C@H](Cc2c[nH]c3c(C)cccc23)NC(=O)[C@H]([C@@H](C)O)NC(=O)[C@H](CC(=O)N(C)C)NC(=O)[C@@H](NC(=O)CCOCCNC(=N)N)C(C)(C)SSC(C)(C)[C@@H](C(=O)N[C@@H](Cc2ccc(OCCCCC[N+](C)(C)C)cc2)C(=O)N[C@@H](Cc2ccc3ccccc3c2)C(=O)NC2(C(=O)N[C@@H](CCCCN(C)C(C)=O)C(=O)N[C@@H](CC(N)=O)C(=O)N[C@@H](Cc3cccnc3)C(=O)N(C)CC(=O)N(C)C)CCOCC2)NC1=O [compound 390, cPEG2gCO-Pen(3)-N(N(Me)2)-T-7MeW-K(NMeAc)-Pen(3)-TMAPF-2Nal-THP-K(NMeAc)-N-3Pya-Sar-CON(Me)2] (X31-[Pen]D(NMe2)T[Trp(7-Me)][Lys(Me)](Ac)[Pen]Y(X3)[2Nal][Thp][Lys(Me)](Ac)N[3Pal][Sar]-NMe2; disulfide 1-6)	148	1.2
CC(=O)NCCCC[C@@H]1NC(=O)[C@H](Cc2c[nH]c3c(C)cccc23)NC(=O)[C@H]([C@@H](C)O)NC(=O)[C@H](CC(N)=O)NC(=O)[C@@H](NC(C)=O)C(C)(C)SSC(C)(C)[C@@H](C(=O)N[C@@H](Cc2ccc(OCCCCCCCC[N+](C)(C)C)cc2)C(=O)N[C@@H](Cc2ccc3ccccc3c2)C(=O)NC2(C(=O)N[C@@H](CCCCNC(C)=O)C(=O)N[C@@H](CC(N)=O)C(=O)N[C@@H](Cc3cccnc3)C(=O)N(C)CC(N)=O)CCOCC2)NC1=O [compound 456] (Ac-[Pen]NT[Trp(7-Me)]K(Ac)[Pen]Y(X8)[2Nal][Thp]K(Ac)N[3Pal][Sar]-NH2; disulfide 1-6 (inferred))	156	1.5

Continued, values first:

EPSA [1] [A^2]	IC50 (IL-23R) [nM]	Compound
161	6	CC(=O)N(C)CCCC[C@@H]1NC(=O)[C@H](Cc2c[nH]c3c(C)cccc23)NC(=O)[C@H]([C@@H](C)O)NC(=O)[C@H](C)NC(=O)[C@@H](NC(=O)CCOCCOCC[N+](C)(C)C)C(C)(C)SSC(C)(C)[C@@H](C(=O)N[C@@H](Cc2ccc(OCCCCC[N+](C)(C)C)cc2)C(=O)N[C@@H](Cc2ccc3ccccc3c2)C(=O)NC2(C(=O)N[C@@H](CCCCN(C)C(C)=O)C(=O)N[C@@H](CC(N)=O)C(=O)N[C@@H](Cc3cccnc3)C(=O)N(C)CC(=O)N(C)C)CCOCC2)NC1=O [compound 496, cPEG3aCO-Pen(3)-a-T-7MeW-K(NMeAc)-Pen(3)-TMAPF-2Nal-THP-K(NMeAc)-N-3Pya-Sar-CON(Me)2] ({Me3N+(CH2)2O(CH2)2O(CH2)2CO}-[Pen]AT[Trp(7-Me)][Lys(Me)](Ac)[Pen]Y(X3)[2Nal][Thp][Lys(Me)](Ac)N[3Pal][Sar]-NMe2; disulfide 1-6)
158	4.6	CC(=O)NCCCC[C@@H]1NC(=O)[C@H](Cc2c[nH]c3c(C)cccc23)NC(=O)[C@H]([C@@H](C)O)NC(=O)[C@H](CC(=O)N(C)C)NC(=O)[C@@H](NC(=O)C(F)(F)F)C(C)(C)SSC(C)(C)[C@@H](C(=O)N[C@@H](Cc2ccc(OCCN)cc2)C(=O)N[C@@H](Cc2ccc3ccccc3c2)C(=O)NC2(C(=O)N[C@@H](CCCCNC(C)=O)C(=O)N[C@@H](CC(N)=O)C(=O)N[C@@H](Cc3cccnc3)C(=O)N(C)CC(N)=O)CCOCC2)NC1=O [compound 52, CF3CO-Pen(3)-N(N(Me)2)-T-7MeW-K(Ac)-Pen(3)-AEF-2Nal-THP-K(Ac)-N-3Pya-Sar-CONH2] (Tfa-[Pen]D(NMe2)T[Trp(7-Me)]K(Ac)[Pen][AEF][2Nal][Thp]K(Ac)N[3Pal][Sar]-NH2; disulfide 1-6 (inferred))
158	1.5	CC(=O)N(C)CCCC[C@@H]1NC(=O)[C@H](Cc2c[nH]c3c(C)cccc23)NC(=O)[C@H]([C@@H](C)O)NC(=O)[C@H](CC(=O)N(C)C)NC(=O)[C@@H](NC(=O)CCOCCOCCNC(=N)N)C(C)(C)SSC(C)(C)[C@@H](C(=O)N[C@@H](Cc2ccc(OCCCCC[N+](C)(C)C)cc2)C(=O)N[C@@H](Cc2ccc3ccccc3c2)C(=O)NC2(C(=O)N[C@@H](CCCCN(C)C(C)=O)C(=O)N[C@@H](CC(N)=O)C(=O)N[C@@H](Cc3cccnc3)C(=O)N(C)CC(=O)N(C)C)CCOCC2)NC1=O [compound 391, cPEG3gCO-Pen(3)-N(N(Me)2)-T-7MeW-K(NMeAc)-Pen(3)-TMAPF-2Nal-THP-K(NMeAc)-N-3Pya-Sar-CON(Me)2] (X11-[Pen]D(NMe2)T[Trp(7-Me)][Lys(Me)](Ac)[Pen]Y(X3)[2Nal][Thp][Lys(Me)](Ac)N[3Pal][Sar]-NMe2; disulfide 1-6)
